Data as given in patent US8614201B2 (Janssen Pharmaceutica NV, priority 2009, dated 2013).

Target: Human TRPA1 (Homo sapiens, UniProt O75762)
Assay: Assay 1: In vitro cellular testing of TRPA1 modulation (CHO-TREx, Fluo-3 calcium fluorescence, AITC agonist)
Assay type: cell-based
Parameters: expressed in transfected cells; host or cells: CHO-TREx cells (Invitrogen), vector pcDNA4/TO
Conditions: CHO-TREx cells expressing human TRPA1; Fluo-3 fluorescence (FLIPR/Tetra); agonist 15 μM allyl isothiocyanate (AITC); 30 minute antagonist incubation
How it was run: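 Antagonist potency is the 50% reduction of the AITC (15 μM) calcium response, Hill-fitted against no-antagonist and 10 μM ruthenium red controls. Fluo-3-loaded (4 μM) CHO-TREx cells with tetracycline-inducible human TRPA1 got compound in HEPES saline pH 7.4 for 30 min, usually from 10 μM in three-fold dilutions.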

Chain of Human TRPA1 (O75762 whole entry): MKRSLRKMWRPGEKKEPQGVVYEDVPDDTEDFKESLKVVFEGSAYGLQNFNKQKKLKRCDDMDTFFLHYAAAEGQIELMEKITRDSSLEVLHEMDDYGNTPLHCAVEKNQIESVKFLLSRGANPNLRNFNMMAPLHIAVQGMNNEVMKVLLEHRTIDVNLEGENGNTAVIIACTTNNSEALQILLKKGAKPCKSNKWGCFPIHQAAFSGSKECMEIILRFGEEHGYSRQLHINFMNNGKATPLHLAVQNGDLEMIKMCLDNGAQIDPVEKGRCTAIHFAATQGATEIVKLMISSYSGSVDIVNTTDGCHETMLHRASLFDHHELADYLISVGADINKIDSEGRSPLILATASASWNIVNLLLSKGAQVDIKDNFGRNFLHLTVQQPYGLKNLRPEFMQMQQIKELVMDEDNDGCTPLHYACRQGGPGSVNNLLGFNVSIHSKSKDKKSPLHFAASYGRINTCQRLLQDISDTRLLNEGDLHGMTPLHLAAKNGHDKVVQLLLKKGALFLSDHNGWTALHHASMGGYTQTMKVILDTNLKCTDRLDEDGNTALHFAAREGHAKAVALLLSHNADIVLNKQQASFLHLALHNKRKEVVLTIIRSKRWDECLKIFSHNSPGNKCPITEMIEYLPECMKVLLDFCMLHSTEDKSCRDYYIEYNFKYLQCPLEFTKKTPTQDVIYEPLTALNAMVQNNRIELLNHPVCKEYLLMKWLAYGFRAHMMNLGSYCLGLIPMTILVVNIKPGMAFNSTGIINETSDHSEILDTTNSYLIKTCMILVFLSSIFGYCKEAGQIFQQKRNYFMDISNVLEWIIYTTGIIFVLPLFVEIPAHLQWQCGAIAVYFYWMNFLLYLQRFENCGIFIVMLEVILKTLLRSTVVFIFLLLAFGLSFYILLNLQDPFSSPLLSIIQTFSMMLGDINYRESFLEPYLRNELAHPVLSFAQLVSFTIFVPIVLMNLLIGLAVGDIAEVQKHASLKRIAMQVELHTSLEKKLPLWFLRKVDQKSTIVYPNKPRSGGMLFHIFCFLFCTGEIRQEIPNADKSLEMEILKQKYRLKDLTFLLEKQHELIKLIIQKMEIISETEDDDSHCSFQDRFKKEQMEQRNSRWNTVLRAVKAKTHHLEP

Row | SMILES | IC50 [nM]
1 | O=C(NCc1cc(-c2ccc(C(F)(F)F)cc2)nc(N2CCN(Cc3cccnc3)CC2)n1)[C@@H]1CCCN1S(=O)(=O)c1ccc(F)cc1 [Example 19, 1-(4-Fluoro-benzenesulfonyl)-pyrrolidine-2S-carboxylic acid [2-(4-pyridin-3-ylmethyl-piperazin-1-yl)-6-(4-trifluoromethyl-phenyl)-pyrimidin-4-ylmethyl]-amide] | 16
2 | CC(C)CN1CCN(c2cc(CNC(=O)[C@@H]3C=CCN3S(=O)(=O)c3ccc(F)cc3)cc(-c3ccc(C(F)(F)F)cc3)n2)CC1 [Example 390, (2S)-1-[(4-Fluorophenyl)sulfonyl]-N-({2-[4-(2-methylpropyl)piperazin-1-yl]-6-[4-(trifluoromethyl)phenyl]pyridin-4-yl}methyl)-2,5-dihydro-1H-pyrrole-2-carboxamide] | 382
3 | O=C(NCc1cccc(-c2ccc(C(F)(F)F)cc2)c1)[C@@H]1C=CCN1S(=O)(=O)c1ccc(F)cc1 [Example 111, 1-(4-Fluorobenzenesulfonyl)-2,5-dihydro-1H-pyrrole-2S-carboxylic acid (4′-trifluoromethylbiphenyl-3-ylmethyl)-amide] | 14
4 | O=C(NCc1cc(-c2ccc(C(F)(F)F)cc2)nc(N2CCN(c3ccccc3F)CC2)c1)[C@@H]1CC(F)(F)CN1S(=O)(=O)c1ccc(F)cc1 [Example 357, 4,4-Difluoro-N-({2-[4-(2-fluorophenyl)piperazin-1-yl]-6-[4-(trifluoromethyl)phenyl]pyridin-4-yl}methyl)-1-[(4-fluorophenyl)sulfonyl]-L-prolinamide] | > 10000
5 | O=C(NCc1cc(-c2ccc(C(F)(F)F)cc2)nc(N2CCN(Cc3ccccc3OC(F)(F)F)CC2)n1)[C@@H]1CCCN1S(=O)(=O)c1ccc(F)cc1 [Example 51, 1-(4-Fluoro-benzenesulfonyl)-pyrrolidine-2S-carboxylic acid [2-[4-(2-trifluoromethoxy-benzyl)-piperazin-1-yl]-6-(4-trifluoromethyl-phenyl)-pyrimidin-4-ylmethyl]-amide] | 148
6 | O=C(NCc1cc(-c2ccc(C(F)(F)F)cc2)nc(N2CCN(Cc3cccnc3)CC2)c1)[C@@H]1CC(F)(F)CN1S(=O)(=O)c1ccc(Cl)s1 [Example 366] | 1650
7 | N#Cc1ccc(-c2cccc(CNC(=O)[C@@H]3CCCN3S(=O)(=O)c3ccc(F)cc3)c2)cc1 [Example 86, 1-(4-Fluoro-benzenesulfonyl)-pyrrolidine-2S-carboxylic acid (4′-cyano-biphenyl-3-ylmethyl)-amide] | 85
8 | CC(C)N1CCC(CN(C)c2nc(CNC(=O)[C@@H]3CCCN3S(=O)(=O)c3ccc(Cl)s3)cc(-c3ccc(C(F)(F)F)cc3)n2)CC1 [Example 55, 1-(5-Chloro-thiophene-2S-sulfonyl)-pyrrolidine-2S-carboxylic acid [2-[(1-isopropyl-piperidin-4-ylmethyl)-methyl-amino]-6-(4-trifluoromethyl-phenyl)-pyrimidin-4-ylmethyl]-amide] | 2550
9 | O=C(NCc1cc(-c2ccc(OC(F)(F)F)cc2)ccn1)[C@@H]1CC(F)(F)CN1S(=O)(=O)c1ccc(F)cc1 [Example 141, 4,4-Difluoro-1-(4-fluoro-benzenesulfonyl)-pyrrolidine-2S-carboxylic acid [4-(4-trifluoromethoxy-phenyl)-pyridin-2-ylmethyl]-amide] | 73
10 | CNc1cc(CNC(=O)[C@@H]2C=CCN2S(=O)(=O)c2ccc(F)cc2)cc(-c2ccc(C(F)(F)F)cc2)n1 [Example 372, (2S)-1-[(4-Fluorophenyl)sulfonyl]-N-({2-(methylamino)-6-[4-(trifluoromethyl)phenyl]pyridin-4-yl}methyl)-2,5-dihydro-1H-pyrrole-2-carboxamide] | 1610
11 | CN(C(=O)OC(C)(C)C)C1CCN(c2nc(CNC(=O)[C@@H]3CCCN3S(=O)(=O)c3ccc(Cl)s3)cc(-c3ccc(C(F)(F)F)cc3)n2)C1 (stereo partly drawn) [Example 38, {1-[4-({[1-(5-Chloro-thiophene-2-sulfonyl)-pyrrolidine-2S-carbonyl]-amino}-methyl)-6-(4-trifluoromethyl-phenyl)-pyrimidin-2-yl]-pyrrolidin-3-yl}-methyl-carbamic acid tert-butyl ester] | 6
12 | CNc1cc(CNC(=O)[C@@H]2CC(F)(F)CN2S(=O)(=O)c2ccc(Cl)s2)cc(-c2ccc(C(F)(F)F)cc2)n1 [Example 384, 1-[(5-Chlorothiophen-2-yl)sulfonyl]-4,4-difluoro-N-({2-(methylamino)-6-[4-(trifluoromethyl)phenyl]pyridin-4-yl}methyl)-L-prolinamide] | 2220
13 | O=C(NCc1cc(-c2ccc(C(F)(F)F)cc2)nc(N2CCN(Cc3ccccn3)CC2)c1)[C@@H]1CC(F)(F)CN1S(=O)(=O)c1ccc(F)cc1 [Example 387, 4,4-Difluoro-1-[(4-fluorophenyl)sulfonyl]-N-({2-[4-(pyridin-2-ylmethyl)piperazin-1-yl]-6-[4-(trifluoromethyl)phenyl]pyridin-4-yl}methyl)-L-prolinamide] | 3050
14 | CC(Nc1cc(CNC(=O)[C@@H]2CCCN2S(=O)(=O)c2ccc(Cl)s2)cc(-c2ccc(C(F)(F)F)cc2)n1)c1ccccn1 (stereo partly drawn) [Example 409, 1-[(5-Chlorothiophen-2-yl)sulfonyl]-N-({2-[(1-pyridin-2-ylethyl)amino]-6-[4-(trifluoromethyl)phenyl]pyridin-4-yl}methyl)-L-prolinamide] | 64
15 | O=C(NCc1cc(-c2ccc(C(F)(F)F)cc2)ncn1)[C@@H]1CCCN1S(=O)(=O)c1ccc(OC(F)(F)F)cc1 [Example 149, 1-(4-Trifluoromethoxybenzenesulfonyl)-pyrrolidine-2S-carboxylic acid [6-(4-trifluoromethylphenyl)-pyrimidin-4-ylmethyl]-amide] | 3650
16 | CC(Nc1cc(CNC(=O)[C@@H]2C=CCN2S(=O)(=O)c2ccc(F)cc2)cc(-c2ccc(C(F)(F)F)cc2)n1)c1ccncc1 (stereo partly drawn) [Example 412, (2S)-1-[(4-Fluorophenyl)sulfonyl]-N-({2-[(1-pyridin-4-ylethyl)amino]-6-[4-(trifluoromethyl)phenyl]pyridin-4-yl}methyl)-2,5-dihydro-1H-pyrrole-2-carboxamide] | 1270
17 | O=C(NCc1cc(-c2ccc(C(F)(F)F)cc2)ncn1)[C@@H]1CCCN1S(=O)(=O)c1ccccc1F [Example 153, 1-(2-Fluorobenzenesulfonyl)-pyrrolidine-2S-carboxylic acid [6-(4-trifluoromethylphenyl)-pyrimidin-4-ylmethyl]-amide] | 401
18 | C[C@H](NC(=O)[C@@H]1CCCN1S(=O)(=O)c1ccc(F)cc1)c1cccc(-c2ccc(C(F)(F)F)cc2)c1 [Example 113, (1S,2S)-1-(4-Fluoro-benzenesulfonyl)-pyrrolidine-2-carboxylic acid [1-(4′-trifluoromethyl-biphenyl-3-yl)-ethyl]-amide] | 62

Continued by falling IC50, values first:

Row | IC50 [nM] | SMILES
19 | 14100 | NC(=O)c1ccc(-c2cccc(CNC(=O)[C@@H]3CCCN3S(=O)(=O)c3ccc(F)cc3)c2)cc1 [Example 85, 1-(4-Fluorobenzenesulfonyl)-pyrrolidine-2S-carboxylic acid (4′-carbamoylbiphenyl-3-ylmethyl)-amide]
20 | 4870 | O=C(NCc1cc(-c2ccc(C(F)(F)F)cc2)nc(N2CCN(Cc3cccnc3)CC2)c1)[C@@H]1CC(F)(F)CN1S(=O)(=O)c1ccc(F)cc1 [Example 363, 4,4-Difluoro-1-[(4-fluorophenyl)sulfonyl]-N-({2-[4-(pyridin-3-ylmethyl)piperazin-1-yl]-6-[4-(trifluoromethyl)phenyl]pyridin-4-yl}methyl)-L-prolinamide]
21 | 1070 | CCN(CC)C1CCN(c2nc(CNC(=O)[C@@H]3CCCN3S(=O)(=O)c3ccc(Cl)s3)cc(-c3ccc(C(F)(F)F)cc3)n2)C1 (stereo partly drawn) [Example 54, 1-(5-Chloro-thiophene-2-sulfonyl)-pyrrolidine-2S-carboxylic acid [2-(3-diethylamino-pyrrolidin-1-yl)-6-(4-trifluoromethyl-phenyl)-pyrimidin-4-ylmethyl]-amide]
22 | 771 | CS(=O)(=O)c1ccc(-c2cccc(CNC(=O)[C@@H]3CCCN3S(=O)(=O)c3ccc(F)cc3)c2)cc1 [Example 75, 1-(4-Fluorobenzenesulfonyl)-pyrrolidine-2S-carboxylic acid (4′-methanesulfonylbiphenyl-3-ylmethyl)-amide]
23 | 510 | O=C(NCc1cc(NCc2ccccc2)nc(-c2ccc(C(F)(F)F)cc2)c1)[C@@H]1CCCN1S(=O)(=O)c1ccc(Cl)s1 [Example 323, N-({2-(Benzylamino)-6-[4-(trifluoromethyl)phenyl]pyridin-4-yl}methyl)-1-[(5-chlorothiophen-2-yl)sulfonyl]-L-prolinamide]
24 | 113 | CC1CCCN1c1cc(CNC(=O)[C@@H]2CCCN2S(=O)(=O)c2ccc(F)cc2)cc(-c2ccc(C(F)(F)F)cc2)n1 (stereo partly drawn) [Example 336, 1-[(4-Fluorophenyl)sulfonyl]-N-({2-(2-methylpyrrolidin-1-yl)-6-[4-(trifluoromethyl)phenyl]pyridin-4-yl}methyl)-L-prolinamide]
25 | 59 | O=C(NCc1cccc(-c2ccc(Br)cc2)c1)[C@@H]1CCCN1S(=O)(=O)c1ccc(F)cc1 [Example 77, 1-(4-Fluoro-benzenesulfonyl)-pyrrolidine-2S-carboxylic acid (4′-bromo-biphenyl-3-ylmethyl)-amide]
26 | 28 | O=C(NCc1cc(-c2ccc(C(F)(F)F)cc2)ncn1)[C@@H]1CCCN1S(=O)(=O)c1ccc(F)c(F)c1 [Example 148, 1-(3,4-Difluorobenzenesulfonyl)-pyrrolidine-2S-carboxylic acid [6-(4-trifluoromethylphenyl)-pyrimidin-4-ylmethyl]-amide]
27 | 26 | O=C(NCc1cccc(-c2ccc(OC(F)(F)F)cc2)c1)[C@@H]1CCCN1S(=O)(=O)c1ccc(F)cc1 [Example 68, 1-(4-Fluorobenzenesulfonyl)-pyrrolidine-2S-carboxylic acid (4′-trifluoromethoxybiphenyl-3-ylmethyl)-amide]
